One data set has as its system HDAC (HeLa cell extract). The data set can be described thus: Selectivity assay: HDAC activity, fluorescent assay (Fluor de Lys). To be noted: single concentration @100 (μM). The data set is classed as biochemical. The method, then:
Alternatively, the activity of the compounds as HDAC inhibitors was determined using a commercially available fluorescent assay kit (Fluor de Lys™, BioMol Research Labs, Inc., Plymouth Meeting, USA). HeLa extract was incubated for 1 hour at 37° C. in assay buffer (25 mM HEPES, 137 mM NaCl, 2.7 mM KCl, 1 mM MgCl2, pH 8.0) with 15 μM acetylated substrate in the presence of test compound (HDAC inhibitor). The extent of deacetylation was determined by the addition of 50 μL of a 1-in-500 dilution of Developer, and subsequent measurement of the fluorescence (excitation 355 nm, emission 460 nm), according to the instructions provided with the kit.
The HeLa cell extract was made from HeLa cells (ATCC Ref. No. CCL-2) by freeze-thawing three times in 60 mM Tris.HCl, pH 8.0, 450 mM NaCl, 30% glycerol. Two cell volumes of extraction buffer were used, and particulate material was centrifuged out (20,800 g, 4° C., 10 minutes). The supernatant extract having deacetylase activity was aliquoted and frozen for storage.
Percent activity (% activity) for each test compound was calculated as:
% activity={(S^C−B)/(S^o−B)}×100
wherein S^C denotes signal measured in the presence of enzyme and the compound being tested, S^o denotes signal measured in the presence of enzyme but in the absence of the compound being tested, and B denotes the background signal measured in the absence of both enzyme and compound being tested. The IC50 corresponds to the concentration which achieves 50% activity.

Another data set has as its target MMP-14 (Homo sapiens, UniProt P50281). Briefly: Matrix metalloprotease panel, single concentration. The data set is classed as biochemical. The method, then:
(§1) Several compounds were tested at a single concentration against a panel of matrix metalloproteases including angiotensin converting enzyme (ACE) and the percentage inhibition determined.

Data set [1] has as its target angiotensin converting enzyme (ACE) (Homo sapiens, UniProt P12821). Briefly: Matrix metalloprotease panel, single concentration. The data set is classed as biochemical. The method, then:
as §1

A further data set deals with MMP-3 (Homo sapiens, UniProt P08254). Briefly: Matrix metalloprotease panel, single concentration. The data set is classed as biochemical. On the procedure: as §1
The target in the next data set is T1, MMP-7 (Homo sapiens, UniProt P09237).
T1 sequence (P09237 95-267): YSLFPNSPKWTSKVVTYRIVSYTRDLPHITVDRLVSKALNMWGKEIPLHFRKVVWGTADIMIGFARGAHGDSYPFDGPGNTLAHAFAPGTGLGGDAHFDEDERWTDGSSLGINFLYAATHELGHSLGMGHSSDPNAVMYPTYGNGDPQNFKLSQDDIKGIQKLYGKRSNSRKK
Briefly: Matrix metalloprotease panel, single concentration. The data set is classed as biochemical. On the procedure:
as §1

In another data set the target is MMP-12 (Homo sapiens, UniProt P39900). The data set can be described thus: Matrix metalloprotease panel, single concentration. The data set is classed as biochemical. On the procedure:
as §1

The target of a further data set is MMP-13 (Homo sapiens, UniProt P45452). The data set can be described thus: Matrix metalloprotease panel, single concentration. In kind it is biochemical. The method, then: as §1
Another data set deals with T2, MMP-1 (Homo sapiens, UniProt P03956).
T2 sequence (P03956 100-469): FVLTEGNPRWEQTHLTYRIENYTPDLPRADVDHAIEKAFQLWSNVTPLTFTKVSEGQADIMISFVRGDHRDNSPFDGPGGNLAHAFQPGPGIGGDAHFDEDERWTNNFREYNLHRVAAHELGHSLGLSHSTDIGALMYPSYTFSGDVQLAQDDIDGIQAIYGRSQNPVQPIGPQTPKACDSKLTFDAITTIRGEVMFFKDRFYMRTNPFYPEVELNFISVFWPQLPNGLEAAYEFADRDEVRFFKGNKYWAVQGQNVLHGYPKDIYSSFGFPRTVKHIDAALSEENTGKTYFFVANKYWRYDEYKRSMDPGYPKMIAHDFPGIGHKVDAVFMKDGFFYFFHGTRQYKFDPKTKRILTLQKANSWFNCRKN
The data set can be described thus: Matrix metalloprotease panel, single concentration. In kind it is biochemical. On the procedure: as §1

The target in a further data set is MMP-8 (Homo sapiens, UniProt P22894). Briefly: Matrix metalloprotease panel, single concentration. The data set is classed as biochemical. On the procedure:
as §1

A further data set has as its target T3, MMP-2 (Homo sapiens, UniProt P08253).
T3 sequence (P08253 110-660): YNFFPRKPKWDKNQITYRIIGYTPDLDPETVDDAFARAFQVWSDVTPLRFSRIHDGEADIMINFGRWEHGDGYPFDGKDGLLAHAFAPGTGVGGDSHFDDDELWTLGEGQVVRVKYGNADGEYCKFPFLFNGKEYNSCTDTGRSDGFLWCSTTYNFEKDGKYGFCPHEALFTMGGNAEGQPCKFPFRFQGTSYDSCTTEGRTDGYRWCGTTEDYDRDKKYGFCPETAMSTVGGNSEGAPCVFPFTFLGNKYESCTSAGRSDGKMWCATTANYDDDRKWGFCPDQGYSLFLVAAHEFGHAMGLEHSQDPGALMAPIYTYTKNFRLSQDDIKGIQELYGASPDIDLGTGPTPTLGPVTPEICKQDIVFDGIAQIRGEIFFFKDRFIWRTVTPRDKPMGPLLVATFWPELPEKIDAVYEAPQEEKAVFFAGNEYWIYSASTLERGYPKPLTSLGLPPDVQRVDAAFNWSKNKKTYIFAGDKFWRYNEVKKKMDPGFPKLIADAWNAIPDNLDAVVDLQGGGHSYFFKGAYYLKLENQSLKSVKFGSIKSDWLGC
The data set can be described thus: Matrix metalloprotease panel, single concentration. In kind it is biochemical. The method, then:
as §1

Another data set has as its target MMP-9 (Homo sapiens, UniProt P14780). The data set can be described thus: Matrix metalloprotease panel, single concentration. The data set is classed as biochemical. On the procedure: as §1
A further data set has as its target MMP-10 (Homo sapiens, UniProt P09238). Briefly: Matrix metalloprotease panel, single concentration. The data set is classed as biochemical. The method, then: as §1

Chain of MMP-10 (P09238 99-476, species assumed): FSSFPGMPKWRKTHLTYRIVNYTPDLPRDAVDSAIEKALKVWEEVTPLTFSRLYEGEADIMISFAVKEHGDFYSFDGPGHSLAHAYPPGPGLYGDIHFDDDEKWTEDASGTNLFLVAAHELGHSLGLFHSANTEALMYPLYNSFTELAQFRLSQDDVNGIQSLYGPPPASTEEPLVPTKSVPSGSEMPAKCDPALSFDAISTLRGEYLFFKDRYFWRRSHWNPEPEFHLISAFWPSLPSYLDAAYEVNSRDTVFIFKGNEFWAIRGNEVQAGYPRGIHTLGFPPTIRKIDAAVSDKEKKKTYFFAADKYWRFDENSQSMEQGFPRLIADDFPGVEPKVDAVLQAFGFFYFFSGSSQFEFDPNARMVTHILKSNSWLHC
Chain of MMP-12 (P39900 106-470, species assumed): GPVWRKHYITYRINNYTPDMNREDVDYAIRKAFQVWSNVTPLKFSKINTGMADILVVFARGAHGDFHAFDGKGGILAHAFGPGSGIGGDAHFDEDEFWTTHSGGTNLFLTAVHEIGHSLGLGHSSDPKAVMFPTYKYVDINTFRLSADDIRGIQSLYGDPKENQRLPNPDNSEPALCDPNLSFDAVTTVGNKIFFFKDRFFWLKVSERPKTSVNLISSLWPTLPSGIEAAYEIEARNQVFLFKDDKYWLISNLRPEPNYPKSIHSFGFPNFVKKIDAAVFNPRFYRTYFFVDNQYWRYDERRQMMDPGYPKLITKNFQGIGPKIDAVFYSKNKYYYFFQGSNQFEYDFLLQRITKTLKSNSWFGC
Chain of MMP-9 (P14780 94-707, species assumed): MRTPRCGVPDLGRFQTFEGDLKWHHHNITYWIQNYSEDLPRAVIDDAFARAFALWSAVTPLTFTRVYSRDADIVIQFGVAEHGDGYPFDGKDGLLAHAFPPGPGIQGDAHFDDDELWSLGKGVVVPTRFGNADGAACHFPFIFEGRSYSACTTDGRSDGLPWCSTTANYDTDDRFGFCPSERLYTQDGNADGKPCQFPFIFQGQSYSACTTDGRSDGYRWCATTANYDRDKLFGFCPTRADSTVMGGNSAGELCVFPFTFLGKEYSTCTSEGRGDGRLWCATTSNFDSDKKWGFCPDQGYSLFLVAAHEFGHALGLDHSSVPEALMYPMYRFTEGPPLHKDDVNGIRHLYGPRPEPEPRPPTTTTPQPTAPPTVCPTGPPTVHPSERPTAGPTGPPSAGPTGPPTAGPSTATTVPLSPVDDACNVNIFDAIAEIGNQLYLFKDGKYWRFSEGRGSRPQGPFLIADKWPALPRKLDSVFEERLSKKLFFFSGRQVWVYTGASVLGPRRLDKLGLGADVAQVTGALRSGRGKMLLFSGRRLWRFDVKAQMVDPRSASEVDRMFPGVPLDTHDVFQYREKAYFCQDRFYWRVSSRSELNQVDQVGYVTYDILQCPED
Chain of angiotensin converting enzyme (ACE) (P12821 30-1306, species assumed): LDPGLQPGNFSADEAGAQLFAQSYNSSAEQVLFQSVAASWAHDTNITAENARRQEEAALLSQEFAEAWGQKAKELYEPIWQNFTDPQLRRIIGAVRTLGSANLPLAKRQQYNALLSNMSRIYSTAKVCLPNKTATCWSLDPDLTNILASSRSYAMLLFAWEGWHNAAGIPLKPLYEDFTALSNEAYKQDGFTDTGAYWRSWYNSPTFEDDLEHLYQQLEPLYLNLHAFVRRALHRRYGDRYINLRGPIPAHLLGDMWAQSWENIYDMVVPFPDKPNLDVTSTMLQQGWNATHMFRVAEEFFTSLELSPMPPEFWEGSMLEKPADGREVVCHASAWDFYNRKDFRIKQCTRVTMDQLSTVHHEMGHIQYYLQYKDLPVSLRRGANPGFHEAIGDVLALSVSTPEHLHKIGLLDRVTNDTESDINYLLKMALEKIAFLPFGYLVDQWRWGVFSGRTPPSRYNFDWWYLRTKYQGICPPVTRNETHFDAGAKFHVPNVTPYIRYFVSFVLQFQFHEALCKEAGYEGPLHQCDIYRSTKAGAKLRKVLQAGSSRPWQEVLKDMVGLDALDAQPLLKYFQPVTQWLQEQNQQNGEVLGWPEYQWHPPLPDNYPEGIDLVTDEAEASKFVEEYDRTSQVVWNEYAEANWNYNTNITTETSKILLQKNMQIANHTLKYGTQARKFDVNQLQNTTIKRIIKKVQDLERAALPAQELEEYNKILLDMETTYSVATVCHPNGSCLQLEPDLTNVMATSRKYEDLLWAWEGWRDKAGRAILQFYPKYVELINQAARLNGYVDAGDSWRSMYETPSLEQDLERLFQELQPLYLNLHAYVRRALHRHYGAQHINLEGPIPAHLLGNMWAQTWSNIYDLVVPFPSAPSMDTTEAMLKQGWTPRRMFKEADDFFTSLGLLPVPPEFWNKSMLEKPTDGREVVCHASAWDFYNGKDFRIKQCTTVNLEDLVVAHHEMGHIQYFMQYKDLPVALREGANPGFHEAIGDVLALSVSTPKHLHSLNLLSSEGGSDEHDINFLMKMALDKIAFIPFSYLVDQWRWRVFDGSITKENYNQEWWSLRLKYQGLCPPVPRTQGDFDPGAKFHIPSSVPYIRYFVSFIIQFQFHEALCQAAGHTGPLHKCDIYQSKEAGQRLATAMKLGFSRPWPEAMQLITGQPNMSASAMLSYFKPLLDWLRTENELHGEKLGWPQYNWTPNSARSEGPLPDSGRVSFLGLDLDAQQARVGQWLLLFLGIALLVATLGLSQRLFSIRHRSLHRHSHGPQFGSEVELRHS
Chain of MMP-8 (P22894 101-467, species assumed): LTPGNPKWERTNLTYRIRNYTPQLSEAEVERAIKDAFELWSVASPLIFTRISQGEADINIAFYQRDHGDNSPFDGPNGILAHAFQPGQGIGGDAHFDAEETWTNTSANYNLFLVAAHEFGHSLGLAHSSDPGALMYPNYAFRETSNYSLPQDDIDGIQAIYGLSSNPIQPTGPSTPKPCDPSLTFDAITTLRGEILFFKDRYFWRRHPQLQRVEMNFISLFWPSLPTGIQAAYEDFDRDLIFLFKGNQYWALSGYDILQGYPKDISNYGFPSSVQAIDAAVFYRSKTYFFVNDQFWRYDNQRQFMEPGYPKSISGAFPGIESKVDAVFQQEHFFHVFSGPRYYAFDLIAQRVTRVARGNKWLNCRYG
Chain of MMP-3 (P08254 100-477, species assumed): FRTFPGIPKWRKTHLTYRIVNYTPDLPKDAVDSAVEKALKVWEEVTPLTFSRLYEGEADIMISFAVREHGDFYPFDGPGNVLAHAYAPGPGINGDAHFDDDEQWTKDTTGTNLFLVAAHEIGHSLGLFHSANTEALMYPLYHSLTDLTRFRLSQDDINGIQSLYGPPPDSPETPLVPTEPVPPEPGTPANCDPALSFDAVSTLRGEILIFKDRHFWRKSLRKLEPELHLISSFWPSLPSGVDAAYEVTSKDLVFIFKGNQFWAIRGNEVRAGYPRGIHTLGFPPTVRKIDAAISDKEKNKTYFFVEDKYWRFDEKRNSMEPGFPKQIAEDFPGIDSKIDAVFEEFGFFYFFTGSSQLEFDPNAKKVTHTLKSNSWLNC

Take `O=C(CC1c2ccccc2S(=O)(=O)N1c1ccccc1)NO` (stereo not shown) [IX-001]: the “Av. HDAC Inhibition, % @100” value in the data set on HDAC (HeLa cell extract) turned out to be 10%@100. Moreover, the inhibition (in general, the drop in the measured response relative to a control, in per cent) at 5 µM at MMP-14 was 2%; in data set [1], 6%; on MMP-3 it was 1%; on MMP-7, 0%; on MMP-12, 56%; against MMP-13, 24%. Also, the inhibition at 5 µM worked out at 0% on MMP-1; 30% on MMP-8; 19% against MMP-2; 19% against MMP-9; 0% at MMP-10.

For `CC#CCOc1ccc(N2C(CC(=O)NO)c3ccccc3S2(=O)=O)cc1` (stereo not shown) [IX-045], in the data set on HDAC (HeLa cell extract), the “Av. HDAC Inhibition, % @100” value is on record as 38%@100. Further, the inhibition at 5 µM on MMP-14 is 0%; in data set [1], -8%; on MMP-3 it was 11%; against MMP-7, -5%; on MMP-12, 37%; on MMP-13 it was -12%. The inhibition at 5 µM on MMP-1 was -4%; against MMP-8, 21%; against MMP-2 it was 10%; at MMP-9 it was -2%; against MMP-10, 6%.

Turning to `Cc1cc(COc2ccc(N3C(CC(=O)NO)c4ccccc4S3(=O)=O)cc2)c2ccccc2n1` (stereo not shown) [IX-048], the melting point (usually the temperature, or range, at which the solid turns liquid) is 195 to 197 °C. Moreover, the “Av. HDAC Inhibition, % @100” value in the data set with HDAC (HeLa cell extract) amounted to 19%@100. In addition, the inhibition at 5 µM against MMP-14 turned out to be 4%. In [1], the inhibition at 5 µM is -4%. The inhibition at 5 µM against MMP-3 worked out at 34%. The inhibition at 5 µM against MMP-7 turned out to be 31%. On MMP-12, the inhibition at 5 µM worked out at 49%. The inhibition at 5 µM at MMP-13 was -10%. For the same compound, the inhibition at 5 µM against MMP-1 was found to be 6%. Further, the inhibition at 5 µM at MMP-8 amounted to 13%. The inhibition at 5 µM against MMP-2 was -3%. Moreover, the inhibition at 5 µM on MMP-9 was -8%. Further, on MMP-10, the inhibition at 5 µM was 9%.

The values are drawn from patent US20100311741A1, “Bicyclosulfonyl Acid (BCSA) Compounds and Their Use as Therapeutic Agents” (INHIBOX LTD., priority 2007, published 2010).
